Molecular target: T1, parathyroid hormone cell surface receptor (bovine renal cortical plasma membranes) (Bos taurus, UniProt Q1LZF7)
T1 construct: from tissue; host or cells: bovine renal cortex plasma membranes
T1 sequence (Q1LZF7 29-589): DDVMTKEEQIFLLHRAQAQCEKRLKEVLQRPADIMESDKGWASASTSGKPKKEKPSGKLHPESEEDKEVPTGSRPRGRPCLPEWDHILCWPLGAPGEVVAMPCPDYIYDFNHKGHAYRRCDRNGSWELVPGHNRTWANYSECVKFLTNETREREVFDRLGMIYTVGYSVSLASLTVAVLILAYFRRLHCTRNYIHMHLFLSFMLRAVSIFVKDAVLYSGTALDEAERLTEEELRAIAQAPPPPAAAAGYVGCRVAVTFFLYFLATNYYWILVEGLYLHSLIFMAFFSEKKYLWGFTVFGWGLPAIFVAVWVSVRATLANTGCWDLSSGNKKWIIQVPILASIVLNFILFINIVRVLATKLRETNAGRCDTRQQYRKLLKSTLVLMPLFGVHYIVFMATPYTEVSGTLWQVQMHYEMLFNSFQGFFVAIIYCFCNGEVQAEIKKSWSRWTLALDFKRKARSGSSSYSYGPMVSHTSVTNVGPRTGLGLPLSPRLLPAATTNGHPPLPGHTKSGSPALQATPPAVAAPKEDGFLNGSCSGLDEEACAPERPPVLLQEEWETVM
Experiment: PTH binding assay (receptor assay, radioligand [Nle^8,18,^125 I-Tyr^34 ]bPTH(1-34)NH2)
Details: radioligand 25,000 cpm, Tris-containing buffer, 30 min. at 21° C.
Method: PTH analogues were analysed in a new receptor assay which modified the assay reported in Rosenblatt et al., Endocrin. 107: 545-550 (1980). The binding assay used [Nle^8,18,^125 I-Tyr^34 ]bPTH(1-34)NH2which was purified by HPLC (Novapak C18, 32-35% CH3 CN in 0.1% TFA) and was stored as aliquots in 25 mM TrisHCl/1% BSA at -70° C. Bovine renal cortical plasma membranes were incubated with radioligand (25,000 cpm) in a Tris-containing buffer (250 ul) for 30 min. at 21° C. Once equilibrium was reached, bound and free radioligand were separated by centrifugation. High specific binding (85%) to bovine renal cortical membranes was obtained consistently.

SMILES: CN[C@@H](Cc1ccccc1)C(=O)N[C@@H](CCSC)C(=O)N[C@@H](Cc1c[nH]cn1)C(=O)N[C@@H](CC(N)=O)C(=O)N[C@@H](CC(C)C)C(=O)NCC(=O)N[C@@H](CCCCN)C(=O)N[C@@H](Cc1c[nH]cn1)C(=O)N[C@@H](CC(C)C)C(=O)N[C@@H](CO)C(=O)N[C@@H](CO)C(=O)N[C@@H](CCSC)C(=O)N[C@@H](CCC(=O)O)C(=O)N[C@@H](CCCNC(=N)N)C(=O)N[C@H](C(=O)N[C@@H](CCC(=O)O)C(=O)N[C@@H](Cc1c[nH]c2ccccc12)C(=O)N[C@@H](CC(C)C)C(=O)N[C@@H](CCCNC(=N)N)C(=O)N[C@@H](CCCCN)C(=O)N[C@@H](CCCCN)C(=O)N[C@@H](CC(C)C)C(=O)N[C@@H](CCC(N)=O)C(=O)N[C@@H](CC(=O)O)C(=O)N[C@H](C(=O)N[C@@H](Cc1c[nH]cn1)C(=O)N[C@@H](CC(N)=O)C(=O)N[C@@H](Cc1ccc(O)cc1)C(N)=O)C(C)C)C(C)C [[NMePhe^7,Tyr^34]bPTH(7-34)NH2]
- Ki: 82 ± 14 nM

Reference: patent US5001223A, “Parathyroid hormone antagonists with enhanced metabolic properties” (Merck & Co., Inc., priority 1989, dated 1991)
